Data from US20220118117A1, “MODULATORS OF METABOTROPIC GLUTAMATE RECEPTOR 4” (The General Hospital Corporation, priority 2019, published 2022).
Like-named read-outs stand apart in the source and are kept apart here.

What was measured:
[1] = plasma stability; format: in vitro ADME; conditions: rat plasma; for Plasma stability, remaining of the intact test compound: 37° C.
Procedure: Briefly, each tube is added 882 μL of 1:1 diluted rat plasma with phosphate buffer (pH 7.4). 18 μL (100 μM) of DMSO stock solution of the test compound (4, 13 and 15) or positive control compound (Diltiazem) was added to make a final compound concentration 2 μM in the plasma solution and final DMSO content 2%. The mixture was incubated at 37° C. After the incubation at 0, 15, 30, 60, and 120 min time points, aliquots of 50 μL samples were quenched with 100 μL of ice-cold acetonitrile with 25 μM of the internal reference (for HPLC analysis), respectively. The quenched samples were centrifuged at 10,000×g, and the supernatant was analyzed by HPLC. The percentage of remaining intact test compound was calculated by (peak area at the specific time point)/(peak area at 0 min)×100. Every sample was assayed three times.

[2] = biological target: T1, mGluR4 (Homo sapiens, UniProt Q14833); assay: GloSensor cAMP biosensor assay, mGluR4 PAM and agonist activity; format: cell-based; set-up: expressed in transfected cells
T1 sequence (Q14833 33-912): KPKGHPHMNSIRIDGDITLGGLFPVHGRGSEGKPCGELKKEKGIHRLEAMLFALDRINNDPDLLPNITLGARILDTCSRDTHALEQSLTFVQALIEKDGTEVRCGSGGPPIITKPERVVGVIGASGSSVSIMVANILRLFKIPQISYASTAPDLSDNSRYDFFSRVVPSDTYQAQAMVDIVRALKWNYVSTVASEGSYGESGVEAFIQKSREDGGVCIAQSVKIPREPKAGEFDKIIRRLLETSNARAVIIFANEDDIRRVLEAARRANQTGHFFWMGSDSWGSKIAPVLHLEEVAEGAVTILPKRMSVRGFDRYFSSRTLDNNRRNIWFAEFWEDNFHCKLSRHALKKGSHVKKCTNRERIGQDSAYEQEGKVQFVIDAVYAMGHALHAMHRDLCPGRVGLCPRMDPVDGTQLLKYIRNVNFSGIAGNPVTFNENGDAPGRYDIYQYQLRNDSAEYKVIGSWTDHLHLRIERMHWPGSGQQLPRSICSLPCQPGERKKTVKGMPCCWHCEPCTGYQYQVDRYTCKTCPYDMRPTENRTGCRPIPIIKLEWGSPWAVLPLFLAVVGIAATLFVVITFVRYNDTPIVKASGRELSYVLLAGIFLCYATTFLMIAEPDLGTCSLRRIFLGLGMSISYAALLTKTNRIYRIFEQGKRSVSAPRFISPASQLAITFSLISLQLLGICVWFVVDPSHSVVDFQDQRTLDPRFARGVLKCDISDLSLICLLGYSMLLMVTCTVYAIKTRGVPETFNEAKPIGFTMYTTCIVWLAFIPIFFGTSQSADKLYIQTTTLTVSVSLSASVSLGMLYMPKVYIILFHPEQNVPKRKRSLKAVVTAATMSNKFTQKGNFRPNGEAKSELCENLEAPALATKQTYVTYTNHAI
Procedure: Cell Culture. HEK-293 cells were maintained with complete Dulbecco's modified Eagle's medium (DMEM), which was composed of 10% fetal bovine serum (FBS), 2 mM L-glutamine, 100 units/mL penicillin G, 100 μg/mL streptomycin at 37° C. in the presence of 5% CO2. HEK-293 stable cell lines with tetracycline inducible expression of mGluR1, mGluR2, mGluR4, mGluR6 or mGluR8 were maintained with complete DMEM with Hygromycin B (100 μg/mL), Blasticidin (15 μg/mL) at 37° C. in the presence of 5% CO2.
cAMP assay. The Gi/o coupled receptors (mGluR2, mGluR3, mGluR4, mGluR6 and mGluR8) were tested using cAMP assay. Promega's split luciferase based GloSensor cAMP biosensor technology was used in determining Gi-GPCR mediated cAMP production in live cells. On the cells stably expressing mGluR2, mGluR3, mGluR4, mGluR6 or mGluR8, GloSensor cAMP DNA construct was transfected overnight. Cells were seeded into PLL coated 384-well white clear bottom cell culture plates with complete BME Buffer with Tetracycline (1 μg/mL) at a density of 20,000 cells for another 24 h. The cell medium was removed and then 20 μL of buffer was loaded. […] Luminescence was counted in a Trilux luminescence counter. Data were analyzed with Prizm 5.0 (GraphPad software).
Secondary assays—Dose-response assays. […] For each compound, the results from four replicates were averaged and then either EC50 or IC50 values were calculated by non-linear regression using the 4-parameter logistic equation. […]
In sum, the mGluR4 PAM activity was determined using Promega's split luciferase based GloSensor cAMP biosensor assay (refs. 41-42). mGluR4 is coupling to Gαi protein to inhibit adenylate cyclase, which converts ATP to cAMP, which plays an important role in many signal transduction pathways. […] The mGluR4 PAM activity of 15 was evaluated in presence of EC20 concentration of agonist (1 μM L-SOP) by measuring changes in intracellular cAMP concentration.

[3] = biological target: T1, mGluR4; assay: competitive binding (radioligand replacement) assay with [3H]4 in mGluR4 transfected CHO cells; set-up: expressed in transfected cells; host or cells: CHO cells; conditions: 2 nM [3H]4, read-out: IC50 (nM), affinity to mGluR4
Procedure: In Vitro mGluR4 Binding Assay. CHO cells expressing mGluR4 were used for all binding assay protocols. For competitive binding, 2 nM of [^3H]4 was used together with increased concentrations of test compounds ranging from 0.01 nM to 10 μM. Each test tube contained 50 000 freshly harvested CHO cells expressing mGluR4 cultured in HAMs cell culture medium with 100 nM of glutamate, penicillin-streptomycin (100 units), and 1 mM G418. [3H]4 (2 nM) was added to the cell extract with and without test compounds on ice and then incubated for 30 min at room temperature. Samples were centrifuged at 1200 rpm for 10 min at 4° C. and washed three times with a cold cell culture medium as a washing buffer. Samples were lysed by adding 100 μL of 0.5% NaOH and heated using a heating block (56° C., 30 min). Samples were cooled with an ice bath and transferred to Solvent-Saver scintillation vials (VWR International LLC.). To obtain binding parameters, the scintillation liquid (PerkinElmer, Optima Gold) was added prior to counting with a scintillation counter (Packard TriCarb Model, 1 min/vial). Nonspecific binding was determined using 10 μM of nonradioactive test compound, and specific binding was determined by extracting the nonspecific binding from total binding. All measurements were done in triplicate and analyzed with GraphPad Prism software (GraphPad Software Inc.).

Plasma stability, remaining of the intact test compound ([1]; 0 min): 100.00 ± 1.88% | Plasma stability, remaining of the intact test compound ([1]; 15 min): 93.46 ± 1.96% | Plasma stability, remaining of the intact test compound ([1]; 30 min): 104.21 ± 2.84% | Plasma stability, remaining of the intact test compound ([1]; 60 min): 94.54 ± 5.18% | Plasma stability, remaining of the intact test compound ([1]; 120 min): 84.52 ± 10.16% | The plasma stability, The intact ± SEM at 120 min (%) ([1]; 120 min): 84.5 ± 10.2% | EC50 ([2]; agonist mode, cAMP assay, read-out: EC50, mGluR4 agonist activity): 2750 nM | EC50 ([2]; in presence of EC20 concentration of agonist (1 μM L-SOP), read-out: EC50, mGluR4 PAM activity): 324 nM | IC50 [3]: 3.4 nM
SMILES: [2H]C([2H])(F)Sc1cc(NC(=O)c2ccccn2)ccc1Cl [Compound 15, N-(4-Chloro-3-((fluoromethyl-d2)thio)phenyl)picolinamide]
